{"source": "paper PMC6948153", "about": "(ACS chemical biology, 2019)", "key": {"RhlI [1]": {"target": "T1, RhlI (Pseudomonas aeruginosa, UniProt P54291)", "T1 sequence (P54291 whole entry)": "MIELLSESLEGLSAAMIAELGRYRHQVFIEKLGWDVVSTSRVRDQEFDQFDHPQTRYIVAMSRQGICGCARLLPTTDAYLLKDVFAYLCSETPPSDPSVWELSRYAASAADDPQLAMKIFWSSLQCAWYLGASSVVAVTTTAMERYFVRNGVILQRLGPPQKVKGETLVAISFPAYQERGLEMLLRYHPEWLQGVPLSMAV", "conditions": "N-butyryl L-homoserine lactone even at 1 mM; ref 21 (Parsek et al.); cited from earlier work"}, "RhlI [2]": {"target": "T1, RhlI", "experiment": "RhlI enzymatic assay", "type": "biochemical", "conditions": "for effect on RhlI activity (inhibition / activation): initial rate with increasing concentrations of compound"}, "RhlI [3]": {"target": "T1, RhlI", "experiment": "Inhibition of RhlI by inert alkyl-ACP / alkyl-CoA substrate analogs", "type": "biochemical", "conditions": "for effect of preincubation of RhlI with inhibitor on % inhibition or IC50: inhibition neither slow-binding nor time-dependent; for inhibition mode: substrate-velocity measurements at different alkyl-ACP concentrations"}, "tag-free RhlI": {"target": "tag-free RhlI (Pseudomonas aeruginosa, UniProt P54291)", "sequence (P54291 whole entry)": "as above", "experiment": "Km and IC50 with tag-free RhlI", "type": "biochemical"}, "RhlI [4]": {"target": "T1, RhlI", "experiment": "Substrate kinetics of acyl-ACPs with RhlI", "type": "biochemical", "conditions": "acyl-ACP substrate with RhlI"}, "[5]": {"conditions": "inert substrate analog with RhlI"}}, "note": "Entries after “also recorded” stand apart in the source; their conditions may differ. Read-outs that look alike come from different tables or passages of the source.", "data": [{"compound": "CSC[C@H]1O[C@@H](n2cnc3c(N)ncnc32)[C@H](O)[C@@H]1O", "note": "[MTA]", "values": [{"measurement": "inhibition of RhlI", "setting": "RhlI [1]", "result": "weak inhibitors"}]}, {"compound": "CCCC(=O)N[C@H]1CCOC1=O", "note": "[compound 1, N-butyryl-L-homoserine lactone]", "values": [{"measurement": "effect on RhlI activity (inhibition / activation)", "setting": "RhlI [2]", "result": "did not inhibit"}, {"measurement": "inhibition of RhlI", "setting": "RhlI [1]", "result": "no inhibition"}]}, {"compound": "CCCC(=O)N[C@@H]1CCOC1=O", "note": "[compound 5, C4-D-HSL]", "values": [{"measurement": "IC50", "setting": "RhlI [2]", "result": "688 ± 91", "unit": "µM"}, {"measurement": "effect on RhlI activity (inhibition / activation)", "setting": "RhlI [2]", "result": "decreased the rate"}]}, {"compound": "CCCC(=O)N[C@H]1CCSC1=O", "note": "[compound 8, C4-L-HCTL]", "values": [{"measurement": "effect on RhlI activity (inhibition / activation)", "setting": "RhlI [2]", "result": "failed to inhibit; also recorded: did not inhibit"}]}, {"compound": "O=C(CCCc1ccccc1)N[C@@H]1CCOC1=O", "note": "[compound 31, 4-phenylbutanoyl-D-HSL]", "values": [{"measurement": "IC50", "setting": "RhlI [2]", "result": "20 ± 10", "unit": "µM"}]}, {"compound": "CCCC(=O)CC(=O)N[C@@H]1CCOC1=O", "note": "[compound 34, 3-oxoC6-D-HSL]", "values": [{"measurement": "EC50", "setting": "RhlI [2]", "result": "224 ± 55", "unit": "µM"}]}, {"compound": "CCCCCC(=O)CC(=O)N[C@@H]1CCOC1=O", "note": "[compound 35, 3-oxoC8-D-HSL]", "values": [{"measurement": "IC50", "setting": "RhlI [2]", "result": "282 ± 34", "unit": "µM"}]}, {"compound": "CCCCCCCCCCCC(=O)N[C@H]1CCSC1=O", "note": "[compound 46, C12-L-HCTL]", "values": [{"measurement": "IC50", "setting": "RhlI [2]", "result": "387 ± 89", "unit": "µM"}]}, {"compound": "CCCCCCCCCC(=O)CC(=O)N[C@H]1CCSC1=O", "note": "[compound 55, 3-oxoC12-L-HCTL]", "values": [{"measurement": "IC50", "setting": "RhlI [2]", "result": "621 ± 50", "unit": "µM"}]}, {"compound": "CCCCCCCCCCCC(=O)N[C@@H]1CCSC1=O", "note": "[compound 60, C12-D-homocysteine thiolactone]", "values": [{"measurement": "IC50", "setting": "RhlI [2]", "result": "11 ± 1", "unit": "µM"}, {"measurement": "fold lower IC50 than L-thiolactone counterpart compound 46", "setting": "RhlI [2]; IC50 of 60 versus IC50 of 46", "result": "about 34 fold"}]}, {"compound": "CCCC(=O)CC(=O)N[C@@H]1CCSC1=O", "note": "[compound 61, 3-oxoC6-D-HCTL]", "values": [{"measurement": "EC50", "setting": "RhlI [2]", "result": "1510 ± 110", "unit": "µM"}, {"measurement": "effect on RhlI activity (inhibition / activation)", "setting": "RhlI [2]", "result": "activated"}]}, {"compound": "CCCCCC(=O)CC(=O)N[C@@H]1CCSC1=O", "note": "[compound 62, 3-oxoC8-D-HCTL]", "values": [{"measurement": "EC50", "setting": "RhlI [2]", "result": "855 ± 74", "unit": "µM"}, {"measurement": "effect on RhlI activity (inhibition / activation)", "setting": "RhlI [2]", "result": "activated"}]}, {"compound": "CCCCCCCC(=O)CC(=O)N[C@@H]1CCSC1=O", "note": "[compound 63, 3-oxoC10-D-HCTL]", "values": [{"measurement": "EC50", "setting": "RhlI [2]", "result": "57 ± 23", "unit": "µM"}, {"measurement": "effect on RhlI activity (inhibition / activation)", "setting": "RhlI [2]", "result": "activated"}]}, {"compound": "CCCCCCCCCC(=O)CC(=O)N[C@@H]1CCSC1=O", "note": "[compound 64, 3-oxoC12-D-HCTL]", "values": [{"measurement": "IC50", "setting": "RhlI [2]", "result": "127 ± 70", "unit": "µM"}, {"measurement": "effect on RhlI activity (inhibition / activation)", "setting": "RhlI [2]", "result": "inhibited"}]}, {"compound": "N[C@H]1CCOC1=O", "note": "[compound 71, L-HSL]", "values": [{"measurement": "effect on RhlI activity (inhibition / activation)", "setting": "RhlI [2]", "result": "None of these compounds or combinations had any effect on RhlI activity"}]}, {"compound": "N[C@@H]1CCOC1=O", "note": "[compound 72, D-HSL]", "values": [{"measurement": "effect on RhlI activity (inhibition / activation)", "setting": "RhlI [2]", "result": "None of these compounds or combinations had any effect on RhlI activity"}]}, {"compound": "N[C@H]1CCSC1=O", "note": "[compound 73, L-HCTL]", "values": [{"measurement": "effect on RhlI activity (inhibition / activation)", "setting": "RhlI [2]", "result": "None of these compounds or combinations had any effect on RhlI activity"}]}, {"compound": "N[C@@H]1CCSC1=O", "note": "[compound 74, D-HCTL]", "values": [{"measurement": "effect on RhlI activity (inhibition / activation)", "setting": "RhlI [2]", "result": "None of these compounds or combinations had any effect on RhlI activity"}]}, {"compound": "CCCC(=O)O", "note": "[compound 75, butyric acid]", "values": [{"measurement": "effect on RhlI activity (inhibition / activation)", "setting": "RhlI [2]", "result": "None of these compounds or combinations had any effect on RhlI activity"}]}, {"compound": "CCCCCC(=O)O", "note": "[compound 76, hexanoic acid]", "values": [{"measurement": "effect on RhlI activity (inhibition / activation)", "setting": "RhlI [2]", "result": "None of these compounds or combinations had any effect on RhlI activity"}]}, {"compound": "CCCCCCCCCC(=O)O", "note": "[compound 78, decanoic acid]", "values": [{"measurement": "effect on RhlI activity (inhibition / activation)", "setting": "RhlI [2]", "result": "None of these compounds or combinations had any effect on RhlI activity"}]}, {"compound": "CCCCCCCCCCCC(=O)O", "note": "[compound 79, dodecanoic acid]", "values": [{"measurement": "effect on RhlI activity (inhibition / activation)", "setting": "RhlI [2]", "result": "None of these compounds or combinations had any effect on RhlI activity"}]}, {"compound": "CCCCSCCNC(=O)CCNC(=O)[C@H](O)C(C)(C)COP(=O)(O)OP(=O)(O)OC[C@H]1O[C@@H](n2cnc3c(N)ncnc32)[C@H](O)[C@@H]1OP(=O)(O)O", "note": "[compound 89, butyl-CoA]", "values": [{"measurement": "inhibition of RhlI", "setting": "RhlI [3]; up to 1 mM", "result": "not inhibiting"}]}, {"compound": "CCCCCCSCCNC(=O)CCNC(=O)[C@H](O)C(C)(C)COP(=O)(O)OP(=O)(O)OC[C@H]1O[C@@H](n2cnc3c(N)ncnc32)[C@H](O)[C@@H]1OP(=O)(O)O", "note": "[compound 90, hexyl-CoA]", "values": [{"measurement": "IC50", "setting": "RhlI [3]", "result": "70 ± 10", "unit": "µM"}]}, {"compound": "CCCCCCCCSCCNC(=O)CCNC(=O)[C@H](O)C(C)(C)COP(=O)(O)OP(=O)(O)OC[C@H]1O[C@@H](n2cnc3c(N)ncnc32)[C@H](O)[C@@H]1OP(=O)(O)O", "note": "[compound 91, octyl-CoA]", "values": [{"measurement": "IC50", "setting": "RhlI [3]", "result": "5.1 ± 0.8", "unit": "µM"}]}, {"compound": "butyl-ACP [compound 85]", "values": [{"measurement": "IC50 with untagged RhlI compared with MBP-tagged enzyme", "setting": "tag-free RhlI", "result": "almost identical"}, {"measurement": "IC50", "setting": "RhlI [3]; [5]", "result": "9.9 ± 4", "unit": "µM"}, {"measurement": "Ki", "setting": "RhlI [3]; [5]", "result": "15.9 ± 0.9", "unit": "µM"}, {"measurement": "effect of preincubation of RhlI with inhibitor on % inhibition or IC50", "setting": "RhlI [3]", "result": "did not significantly alter"}, {"measurement": "inhibition mode", "setting": "RhlI [3]", "result": "noncompetitive"}]}, {"compound": "butyryl-ACP [compound 80]", "values": [{"measurement": "Km with untagged RhlI compared with MBP-tagged enzyme", "setting": "tag-free RhlI", "result": "almost identical"}, {"measurement": "Km", "setting": "RhlI [4]", "result": "7.3 ± 2.1", "unit": "µM"}, {"measurement": "kcat", "setting": "RhlI [4]", "result": "0.0433 ± 0.005", "unit": "s⁻¹"}, {"measurement": "Km", "setting": "RhlI [4]; listed as C4-ACP", "result": 7, "unit": "µM"}]}, {"compound": "decanoyl-ACP [compound 83]", "values": [{"measurement": "Km", "setting": "RhlI [4]", "result": "0.14 ± 0.04", "unit": "µM"}, {"measurement": "kcat", "setting": "RhlI [4]", "result": "0.00633 ± 0.00017", "unit": "s⁻¹"}]}, {"compound": "decyl-ACP [compound 88]", "values": [{"measurement": "IC50", "setting": "RhlI [3]; [5]", "result": "0.1 ± 0.04", "unit": "µM"}, {"measurement": "Ki", "setting": "RhlI [3]; [5]", "result": "4.8 ± 0.3", "unit": "µM"}, {"measurement": "inhibition mode", "setting": "RhlI [3]", "result": "noncompetitive"}]}, {"compound": "dodecanoyl-ACP [compound 84]", "values": [{"measurement": "Km", "setting": "RhlI [4]", "result": "0.26 ± 0.03", "unit": "µM"}, {"measurement": "kcat", "setting": "RhlI [4]", "result": "0.01 ± 0.00017", "unit": "s⁻¹"}, {"measurement": "Km", "setting": "RhlI [4]; listed as C12-ACP", "result": "~0.2", "unit": "µM"}]}, {"compound": "hexanoyl-ACP [compound 81]", "values": [{"measurement": "Km", "setting": "RhlI [4]", "result": "1.2 ± 0.2", "unit": "µM"}, {"measurement": "kcat", "setting": "RhlI [4]", "result": "0.0143 ± 0.00033", "unit": "s⁻¹"}]}, {"compound": "hexyl-ACP [compound 86]", "values": [{"measurement": "IC50", "setting": "RhlI [3]; [5]", "result": "0.7 ± 0.4", "unit": "µM"}, {"measurement": "Ki", "setting": "RhlI [3]; [5]", "result": "10.6 ± 1.1", "unit": "µM"}, {"measurement": "inhibition mode", "setting": "RhlI [3]", "result": "noncompetitive"}]}, {"compound": "holo-ACP: holo acyl carrier protein, product of the RhlI reaction", "values": [{"measurement": "inhibition of RhlI", "setting": "RhlI [1]", "result": "weak inhibitors"}]}, {"compound": "octanoyl-ACP [compound 82]", "values": [{"measurement": "Km with untagged RhlI compared with MBP-tagged enzyme", "setting": "tag-free RhlI", "result": "almost identical"}, {"measurement": "Km", "setting": "RhlI [4]", "result": "0.4 ± 0.06", "unit": "µM"}, {"measurement": "kcat", "setting": "RhlI [4]", "result": "0.01 ± 0.00033", "unit": "s⁻¹"}]}, {"compound": "octyl-ACP [compound 87]", "values": [{"measurement": "IC50 with untagged RhlI compared with MBP-tagged enzyme", "setting": "tag-free RhlI", "result": "almost identical"}, {"measurement": "IC50", "setting": "RhlI [3]; [5]", "result": "0.06 ± 0.02", "unit": "µM"}, {"measurement": "Ki", "setting": "RhlI [3]; [5]", "result": "6.5 ± 0.7", "unit": "µM"}, {"measurement": "effect of preincubation of RhlI with inhibitor on % inhibition or IC50", "setting": "RhlI [3]", "result": "did not significantly alter"}, {"measurement": "inhibition mode", "setting": "RhlI [3]", "result": "noncompetitive"}]}]}
